Measurements: patent US7862836B2, “Phosphorus binder for treatment of kidney disease” (Biolink Life Sciences, Inc., priority 2005, dated 2011)
Like-named read-outs stand apart in the source and are kept apart here.

What was measured:
Stability during storage = format: physicochemical
[1] = 600 mg oral, cited from earlier work
[2] = Solubility in water of cationic phosphate binders (Table 1)
[3] = Sheikh et al., cited from earlier work; for Observed in vitro Pi Binding, %: pH 6.0
[4] = tested on: parathyroid hormone (PTH) secretion; conditions: maintenance dialysis patients; cited from earlier work
[5] = cited from earlier work
[6] = cited from earlier work; remark: listed apart in the source
[7] = in many patients; cited from earlier work
[8] = cited from earlier work; for Fractional phosphorus absorption / Net phosphorus absorption: mean ± SE
[9] = hemodialysis or peritoneal dialysis patients; cited from earlier work
[10] = mean of triplicate
Description: The pH of each solution was adjusted to the desired value by the addition of concentrated hydrochloric acid or sodium hydroxide, as appropriate.
The separation was performed on a Dionex AS11 Cation-Exchange HPLC column integrated with an Agilent Series 1100 HPLC system, and detection of the anionic species was enabled using a Dionex ED50 Electrochemical Detector, operating in Conductivity Mode. Limits of Detection and Quantitation were enhanced through the use of a Dionex Anion Self-Regenerating Suppressor. After assay-specific development and verification of assay performance were completed, the analysis of phosphate and succinate or acetate was performed by sampling the test solution and diluting it, if necessary, to a concentration within the linear range of the Assay. The sample was then injected onto the HPLC column and eluted with a sodium hydroxide gradient. Data were acquired using Agilent ChemStation® software.
The test or control binder was dissolved in deionized water to a volume of 30 mL. The binder solution was added to the phosphorus solution to give a final volume of 600 mL. For each binder study, the phosphorus solutions were titrated by addition of concentrated HCl or NaOH to two different initial pH levels: 4 and 6. […] This was expressed as percent of the total phosphorus present in the original solution. […]

magnesium lipoate
stability during storage (Stability during storage): stable during storage

O=C(O)CCCCC1CCSS1 (centres unmarked) [lipoic acid, 1,2-dithiolane-3-pentanoic acid]
stability during storage (Stability during storage): unstable during storage | safety when ingested by patients with kidney disease [1]: safe | pharmacokinetics, influence of renal function ([1]; severely reduced kidney function or ESRD vs healthy): not influenced by creatinine clearance

[O]=[Mg] [Magnesium Oxide]
Hydrophile? [2]: No

O=C([O-])CC(O)(CC(=O)[O-])C(=O)[O-].O=C([O-])CC(O)(CC(=O)[O-])C(=O)[O-].[Ca+2].[Ca+2].[Ca+2] [Calcium Citrate]
Observed in vitro Pi Binding, % [3]: 10% | Observed in vitro Pi Binding ([3]; pH 6.5): 20% at pH 6.5 (NOTE 2)

[Mg+2].[OH-].[OH-] [Magnesium Hydroxide]
suppressing parathyroid hormone (PTH) secretion [4]: Neither the combination of oral calcium carbonate/magnesium hydroxide nor magnesium hydroxide alone was effective | serum Pi levels ([5]; avg 734 mg elemental Mg/day, 3-5 weeks, control (no binders) 9.0 mg/dL): 8.1 mg/dL | mean serum Mg levels ([5]; avg 734 mg elemental Mg/day, dialysate Mg 1.2 to 1.8 mg/dl): 4.32 mg/dL | patients who developed diarrhea ([5]; nine hemodialysis patients): Four of nine | serum Pi levels ([6]; avg 991 mg elemental Mg daily, dialysate lacking Mg, rose from 4.3): 6.1 mg/dL | serum Mg level (average) ([6]; during Mg(OH)2 treatment): 4.3 mg/dL | severe hyperkalemia [7]: ≤ 8 mEq/L

Magnesium Acetate
fractional absorption of dietary Pi ([8]; 50 mEq of the salt, reduced from 77%): 34% | Pi absorption from ingesta ([8]; 77 mEq per os, 75% with placebo, normal subjects): 28% | fractional magnesium absorption ([8]; highest magnesium intake): 11% | fractional magnesium absorption ([8]; lowest magnesium intake): 65% | Fractional phosphorus absorption ([8]; standard meal + 10.2 mEq MgAc): 55.8 ± 2.8 % | Net phosphorus absorption ([8]; standard meal + 10.2 mEq MgAc): 7.5 ± 0.4 mmol | Fractional phosphorus absorption ([8]; standard meal + 19.4 mEq MgAc): 47.1 ± 3.4 % | Net phosphorus absorption ([8]; standard meal + 19.4 mEq MgAc): 6.3 ± 0.5 mmol | Fractional phosphorus absorption ([8]; standard meal + 39.0 mEq MgAc): 37.0 ± 5.4^|| % | Net phosphorus absorption ([8]; standard meal + 39.0 mEq MgAc): 4.8 ± 0.7^|| mmol | Fractional phosphorus absorption ([8]; standard meal + 77.2 mEq MgAc): 28.1 ± 4.8^¶ % | Net phosphorus absorption ([8]; standard meal + 77.2 mEq MgAc): 3.8 ± 0.6^¶ mmol

O=C(O)CCCC[C@@H]1CCSS1 [(R)-(+)-lipoic acid]
stability during storage (Stability during storage): even more unstable during storage

O=C([O-])CCCC[C@@H]1CCSS1.O=C([O-])CCCC[C@@H]1CCSS1.[Mg+2] [magnesium (R)-(+)-lipoate]
stability during storage (Stability during storage): stable during storage

Calcium Gluconate
Observed in vitro Pi Binding, % [3]: 90%

choline magnesium trisalicylate
effect on serum Pi levels [9]: no effect

O=C([O-])CCC(=O)[O-].[Ca+2] [Calcium Succinate]
Observed in vitro Pi Binding, % ([10]; pH 4.0): 59.4% | Observed in vitro Pi Binding, % ([10]; pH 6.0): 94.0%
